Source: patent publication US6387905B2, “Compounds useful for inhibition of farnesyl protein transferase” (Schering Corporation, priority 1996, dated 2002)
Where two headings read alike, the source gives them in different places.

How the values were obtained:
[1] = biological target: farnesyl protein transferase (FPT), H-ras (Homo sapiens, UniProt P49354+P49356); assay: FPT IC50 (H-ras), inhibition of farnesyl protein transferase, in vitro enzyme assay; type: biochemical
Description: (§1) FPT IC50 (inhibition of farnesyl protein transferase, in vitro enzyme assay) and COS Cell IC50 (Cell-Based Assay) were determined following the assay procedures described in WO 95/10516, published Apr. 20, 1995. GGPT IC50 (inhibition of geranylgeranyl protein transferase, in vitro enzyme assay), Cell Mat Assay, and anti-tumor activity (in vivo anti-tumor studies) could be determined by the assay procedures described in WO 95/10516. The disclosure of WO 95/10516 is incorporated herein by reference thereto.

[2] = biological target: farnesyl protein transferase (FPT), K-ras (Homo sapiens, UniProt P49354+P49356); assay: FPT IC50 (K-ras), inhibition of farnesyl protein transferase, in vitro enzyme assay; type: biochemical
Description: as §1

COS Cell = COS Cell IC50 (Cell-Based Assay); conditions: COS
Description: as §1

Human tumor cells = assay: Soft Agar Assay (anchorage-independent growth); type: cell-based; conditions: Table 5, read-out: Soft Agar IC50
Description: Anchorage-independent growth is a characteristic of tumorgenic cell lines. Human tumor cells are suspended in growth medium containing 0.3% agarose and an indicated concentration of a farnesyl transferase inhibitor. The solution is overlayed onto growth medium solidified with 0.6% agarose containing the same concentration of farnesyl transferase inhibitor as the top layer. After the top layer is solidified, plates are incubated for 10-16 days at 37° C. under 5% CO2 to allow colony outgrowth. After incubation, the colonies are stained by overlaying the agar with a solution of MTT (3-[4,5-dimethyl-thiazol-2-yl]-2,5-diphenyltetrazolium bromide, Thiazolyl blue) (1 mg/mL in PBS). Colonies can be counted and the IC50's can be determined.

[3] = Table 3, H-ras, read-out: FPT IC50 (nM) (H-ras)
[4] = Table 3, read-out: COS Cell IC50
[5] = Table 5, read-out: Cos Cell IC50
[6] = H-ras, read-out: FPT IC50 (H-ras)

Compound | IC50 [1, 3] | IC50 [2] | melting point | IC50 (Human tumor cells; Homo sapiens) | IC50 [1, 6] | IC50 ([1]; Table 4, read-out: FPT IC50) | IC50 (Human tumor cells; listed as 12.1) | IC50 (COS Cell; [4]) | IC50 (COS Cell; [5])
CC(C)(C)OC(=O)N1CCC[C@H]1C(=O)N1CCC(CC(=O)N2CCC([C@H]3c4ncc(Br)cc4CCc4cc(Cl)cc(Br)c43)CC2)CC1 [Example 9] | 11.6 nM | 34.8 nM |  |  |  |  |  | 700 nM | 
C[C@H](NC(=O)OC(C)(C)C)C(=O)N1CCC(CC(=O)N2CCC([C@H]3c4ncc(Br)cc4CCc4cc(Cl)cc(Br)c43)CC2)CC1 [Example 3] | 6.3 nM | 30 nM |  |  |  |  |  |  | 
CC(C)(C)OC(=O)N[C@@H](Cc1c[nH]cn1)C(=O)N1CCC(CC(=O)N2CCC([C@H]3c4ncc(Br)cc4CCc4cc(Cl)cc(Br)c43)CC2)CC1 [Example 8] | 7.4 nM | 41 nM |  |  |  |  |  | 125 nM | 125 nM
O=C(CC1CCN(C(=O)[C@@H]2CCCN2)CC1)N1CCC([C@H]2c3ncc(Br)cc3CCc3cc(Cl)cc(Br)c32)CC1 [Example 12] | 4.4 nM | 35 nM |  | 250 nM |  |  |  | 55 nM | 
C[C@@H](N)C(=O)N1CCC(CC(=O)N2CCC([C@H]3c4ncc(Br)cc4CCc4cc(Cl)cc(Br)c43)CC2)CC1 [Example 6] |  | 31 nM |  | 200 nM | 8.1 nM |  |  | 39 nM | 39 nM
CC(C)(C)OC(=O)NCC(=O)N1CCC(CC(=O)N2CCC([C@H]3c4ncc(Br)cc4CCc4cc(Cl)cc(Br)c43)CC2)CC1 [Example 1] | 12.3 nM | 43.2 nM |  |  |  |  |  |  | 
CN(C)CCCC(=O)N1CCC(CC(=O)N2CCC(C3c4ncc(Br)cc4CCc4cc(Cl)cc(Br)c43)CC2)CC1 (single isomer, unassigned; (+)) [Example 19] | 35 nM |  | 69 to 71 °C |  |  |  |  |  | 
C[C@H](N)C(=O)N1CCC(CC(=O)N2CCC([C@H]3c4ncc(Br)cc4CCc4cc(Cl)cc(Br)c43)CC2)CC1 [Example 4] |  | 23.8 nM |  |  | 5.2 nM |  |  | 140 nM | 140 nM
N[C@@H](Cc1ccccc1)C(=O)N1CCC(CC(=O)N2CCC([C@H]3c4ncc(Br)cc4CCc4cc(Cl)cc(Br)c43)CC2)CC1 [Example 10] | 8.3 nM | 71.2 nM |  |  |  |  |  | 300 nM | 
N[C@@H](Cc1c[nH]cn1)C(=O)N1CCC(CC(=O)N2CCC([C@H]3c4ncc(Br)cc4CCc4cc(Cl)cc(Br)c43)CC2)CC1 [Example 11] | 15 nM | 49 nM |  |  |  |  |  |  | 
C[C@@H](NC(=O)OC(C)(C)C)C(=O)N1CCC(CC(=O)N2CCC([C@H]3c4ncc(Br)cc4CCc4cc(Cl)cc(Br)c43)CC2)CC1 [Example 5] | 8.4 nM | 22 nM |  |  |  |  |  |  | 

Further lines, with some results ahead:

IC50 [1, 3] | IC50 [2] | melting point | IC50 (Human tumor cells; Homo sapiens) | IC50 [1, 6] | IC50 ([1]; Table 4, read-out: FPT IC50) | IC50 (Human tumor cells; listed as 12.1) | Compound | IC50 (COS Cell; [4]) | IC50 (COS Cell; [5])
< 2 nM |  | 77 to 78 °C |  |  |  |  | CCOC(=O)CC(=O)N1CCC(CC(=O)N2CCC(C3c4ncc(Br)cc4CCc4cc(Cl)cc(Br)c43)CC2)CC1 (single isomer, unassigned; (+)) [Example 26] | 125 nM | 
< 2.6 nM |  | 127 to 128 °C |  |  |  |  | O=C(CCN1CCCCC1)N1CCC(CC(=O)N2CCC(C3c4ncc(Br)cc4CCc4cc(Cl)cc(Br)c43)CC2)CC1 (single isomer, unassigned; (+)) [Example 22] | 43 nM | 
5.1 nM |  | 114 to 115 °C | 250 nM |  |  |  | COC(=O)CCC(=O)N1CCC(CC(=O)N2CCC(C3c4ncc(Br)cc4CCc4cc(Cl)cc(Br)c43)CC2)CC1 (single isomer, unassigned; (+)) [Example 25] | 39 nM | 
5.8 nM | 19.8 nM | 82 to 84 °C | 190 nM |  |  |  | CN(C)CCC(=O)N1CCC(CC(=O)N2CCC(C3c4ncc(Br)cc4CCc4cc(Cl)cc(Br)c43)CC2)CC1 (single isomer, unassigned; (+)) [Example 20] | 10 nM | 
4.8 nM |  | 101 to 102 °C |  |  |  |  | COC(=O)CCCC(=O)N1CCC(CC(=O)N2CCC(C3c4ncc(Br)cc4CCc4cc(Cl)cc(Br)c43)CC2)CC1 (single isomer, unassigned; (+)) [Example 24] | 10 nM | 
 |  | 77.2 to 78.1 °C |  |  | 2.8 nM |  | CCOC(=O)CC(=O)N1CCC(CC(=O)N2CCC([C@H]3c4ncc(Br)cc4CCc4cc(Cl)cc(Br)c43)CC2)CC1 [Example 30] |  | 
2.5 nM | 19.4 nM |  | 160 nM |  |  | 90 nM | CN(C)CC(=O)N1CCC(CC(=O)N2CCC(C3c4ncc(Br)cc4CCc4cc(Cl)cc(Br)c43)CC2)CC1 (single isomer, unassigned; (+)) [Example 21] | 10 nM | 
